ChEMBL document CHEMBL3988442, “University of Dundee, Small-Polar-MMV Screening Library” (2021)

Tests used:
[1] = microbe, parasite or virus in culture; details: Mycobacterium tuberculosis, 96 h, read-out: pIC50 (converted)
[2] = microbe, parasite or virus in culture; details: Mycobacterium tuberculosis, 72 h, read-out: pIC50 (converted)

## Cc1ccccc1-n1nnnc1SCC(=O)NC1CC1
[1]
  IC50: > 501 µM
[2]
  IC50: 199 µM

## COc1ccccc1C(N)c1ccccn1 (configuration not stated)
[1]
  IC50: 453 µM
[2]
  IC50: 233 µM

## COC(=O)CSCc1nc(-c2ccc(Cl)cc2)no1
[1]
  IC50: > 50.1 µM
[2]
  IC50: > 50.1 µM

## CC(C)c1cc(C(=O)N2CC[C@@H](N)C2)nn1C(C)(C)C
[1]
  IC50: > 501 µM
[2]
  IC50: > 501 µM

## Cc1cccc(CN(CC(N)=O)Cc2ccccn2)c1
[1]
  IC50: > 501 µM
[2]
  IC50: 194 µM

## COc1ccc(-c2noc(CN3CCN(c4cnccn4)CC3)n2)cc1
[1]
  IC50: 33.8 µM
[2]
  IC50: 47 µM

## CC(C)(C)OC(=O)N1CCC(n2cc(N)cn2)CC1
[1]
  IC50: 287 µM
[2]
  IC50: 202 µM

## FC(F)COCCn1nnc(-c2ccsc2)n1
[1]
  IC50: 56.4 µM
[2]
  IC50: 255 µM

## CCNC(=O)CN(CC)S(=O)(=O)c1ccc(C)cc1
[1]
  IC50: > 501 µM
[2]
  IC50: 295 µM

## CC(C)CCNC(=O)Cn1c(=O)oc2ccccc21
[1]
  IC50: 274 µM
[2]
  IC50: 401 µM

## CN(Cc1ccc(Cl)s1)C(=O)Cn1nc(-c2ccc(F)cc2)oc1=O
[1]
  IC50: > 50.1 µM
[2]
  IC50: > 50.1 µM

## CC(C)(C)OC(=O)N1CCN(c2ccnc(N)c2)CC1
[1]
  IC50: > 501 µM
[2]
  IC50: > 501 µM

## CC(C)CCC(=O)N1CCN(CC(O)C(F)(F)F)CC1 (configuration not stated)
[1]
  IC50: 30.2 µM
[2]
  IC50: 42 µM

## CCCc1nc(N2CCCCCC2)c2c(n1)c(C)nn2CC
[1]
  IC50: 43.2 µM
[2]
  IC50: 23.6 µM

## O=C(c1ccnn1COc1ccc(Cl)cc1)N1CCCC1
[1]
  IC50: > 50.1 µM
[2]
  IC50: > 50.1 µM

## CSCC(CCO)Nc1ncccc1C(F)(F)F (configuration not stated)
[1]
  IC50: > 501 µM
[2]
  IC50: 253 µM

## CN(C)C(=O)c1nnn(-c2ccc(Br)cc2)n1
[1]
  IC50: 14.2 µM
[2]
  IC50: 12.6 µM

## CCC1(CO)CCCN(C(=O)c2ccc(COC)s2)C1 (configuration not stated)
[1]
  IC50: 246 µM
[2]
  IC50: 148 µM

## O=C(CN1CCNCC1)NCCSc1ccc(Cl)cc1
[1]
  IC50: 110 µM
[2]
  IC50: 177 µM

## CCCc1ccc(CN2C[C@H](OCC)[C@@H](O)C2)o1
[1]
  IC50: 241 µM
[2]
  IC50: 298 µM

## Cn1cc(C(=O)N[C@@H]2CN(Cc3ccc(F)cc3)[C@@H]3CCCO[C@@H]32)cn1
[1]
  IC50: > 50.1 µM
[2]
  IC50: > 50.1 µM

## CSCCC(=O)NCc1ccc(C)s1
[1]
  IC50: > 501 µM
[2]
  IC50: > 501 µM

## Cc1cc(CN)on1
[1]
  IC50: 293 µM
[2]
  IC50: 293 µM

## CC(=O)Nc1nc(C(=O)NCc2ccc(C)s2)cs1
[1]
  IC50: 268 µM
[2]
  IC50: 224 µM

## CC(N)c1nc(-c2ccc3c(c2)OCO3)c[nH]1 (configuration not stated)
[1]
  IC50: > 501 µM
[2]
  IC50: > 501 µM

## COc1cccc(C(=O)NCc2ccoc2C)n1
[1]
  IC50: > 501 µM
[2]
  IC50: 364 µM

## Cc1[nH]c2ccc(C(N)=O)cc2c1C
[1]
  IC50: 41.9 µM
[2]
  IC50: 20.8 µM

## CCOc1ccc(Cl)cc1CNCCNCC(C)O (configuration not stated)
[1]
  IC50: 30.7 µM
[2]
  IC50: 254 µM

## Cc1cc(=O)[nH]c(-n2nc(-c3ccccc3)cc2N)n1
[1]
  IC50: > 50.1 µM
[2]
  IC50: 43.5 µM

## CC(C)C(C)(C#N)NC(=O)CNc1cccc(F)c1 (configuration not stated)
[1]
  IC50: 292 µM
[2]
  IC50: 307 µM

## CN(C)c1nc(N)nc(CN2CCCC(c3ccccc3)CC2)n1 (configuration not stated)
[1]
  IC50: > 50.1 µM
[2]
  IC50: > 50.1 µM

## COCCNc1nc(-c2ccc(S(N)(=O)=O)cc2)cs1
[1]
  IC50: > 501 µM
[2]
  IC50: 207 µM

## CC(Cn1cccn1)NCc1csc(-c2ccc3c(c2)OCO3)n1 (configuration not stated)
[1]
  IC50: > 50.1 µM
[2]
  IC50: 1.35 µM

## CC(C)Oc1ccc(S(=O)(=O)N(C)C(C)CN)cc1 (configuration not stated)
[1]
  IC50: 273 µM
[2]
  IC50: 162 µM

## COc1ccc(Br)c(S(=O)(=O)N(C)C)c1
[1]
  IC50: > 501 µM
[2]
  IC50: 358 µM

## Cc1csc(N2CCN(C(=O)c3ccc(C)s3)CC2)n1
[1]
  IC50: 15.5 µM
[2]
  IC50: > 50.1 µM

## CCn1nc(C)c2nc(C)nc(NCCc3ccc(C)cc3)c21
[1]
  IC50: 42.5 µM
[2]
  IC50: 47.4 µM

## O=C1[C@H]2CN(Cc3ccco3)C[C@H]2CN1c1ccsc1
[1]
  IC50: 14.2 µM
[2]
  IC50: 8.77 µM

## CC(C)c1ccc(O)c(C(=O)NC2CCN(c3ncccn3)CC2)c1
[1]
  IC50: 24.7 µM
[2]
  IC50: 20.4 µM

## COCCc1noc(CNC2CCCC(C)(C)C2)n1 (configuration not stated)
[1]
  IC50: > 50.1 µM
[2]
  IC50: 2.66 µM

## CC(C)c1ccc(NC(=O)C2COCCN2C)cc1 (configuration not stated)
[1]
  IC50: > 501 µM
[2]
  IC50: 151 µM
